Results from publication PMC10610505, “Synthesis and Biological Evaluation of Some New 3-Aryl-2-thioxo-2,3-dihydroquinazolin-4(1H)-ones and 3-Aryl-2-(benzylthio)quinazolin-4(3H)-ones as Antioxidants; COX-2, LDHA, α-Glucosidase and α-Amylase Inhibitors; and Anti-Colon Carcinoma and Apoptosis-Inducing Agents” (Pharmaceuticals, 2023).
Values joined by “and” are separate entries in the source; they are usually repeats but may differ in a detail not shown here. Equal entries are not always repeated. Where two headings read alike, the source gives them in different places.

What was measured:
[1] = molecular target: α-amylase; test: In vitro α-amylase (AA) inhibition assay; details: mean ± SD of three replicates; for IC50: read-out: Mean IC50 α-Amylase (AA)
Method: Then, 180 µL of Labtest (the amylase substrate) was added and the samples were incubated for 8 min, followed by measuring the first reaction at 620 nm to obtain (X1). Afterwards, the reaction mixture was incubated for an additional 5 min at 37 °C; then, the second reaction was measured to obtain the final reading (X2). […] The results were expressed as IC50 µg/mL (as well as µM) and were determined from the standard curves.

[2] = tested on: HCT-116 human colon carcinoma cells; test: Viability assay (LDH release), HCT-116; format: cell-based; details: for viability at 200 µg/mL / IC50: Homo sapiens; for viability at 200 µg/mL: read-out: Mean % of viable cells ± SD, HCT-116; for IC50: HCT-116, from concentration–response curves
Method: (§1) The anticancer activities of all the synthesized compounds were assessed against two human colon carcinoma cell lines, namely LoVo and HCT-116 (Table 6), via the determination of the mean percents of the viable cancerous cells remaining after being incubated with 200 µg/mL of each test compound for 48 h using LDH assay.
(§2) The samples were diluted in Dulbecco’s Modified Eagle’s Medium, consisting of 10% fetal bovine serum (FBS), added to cells grown and cultured for 24 h in a 5% CO2-humidified incubator at 37 °C. Thereafter, the activity of lactate dehydrogenase released from damaged cells was determined in the collected supernatant aliquots using an ELISA end-point assay (Benchmark Plus, Bio-Rad, CA, USA); 0.1% Triton X-100 in the assay medium and the assay medium only were used as the positive and negative controls, respectively. Cell viability was expressed as a relative percentage of the OD values (at 550 nm) for compound-treated cells (final concentration of 200 µg /mL) and the negative control, which was shown as the mean % ± SD (n = 3). The results of the viability assays for the potential cytotoxic candidates were compared with the % of viable human umbilical vein endothelial cells (HUVEC) at the same concentration. These cells were grown in Dulbecco’s Modified Eagle’s Medium (PAN-Biotech; Barcelona, Spain) containing 10% FBS (Sigma Aldrich; St. Quentin-Fallavier, France), 2 mM Glutamine (Sigma Aldrich), 100 units/mL penicillin and […] streptomycin (Life Technologies; Paisley, UK).

[3] = DPPH radical scavenging assay; format: biochemical; details: for Mean IC50 for scavenging initial DPPH radicals: mean ± SD of three replicates; for IC50: mean ± SD, converted from mg/mL, read-out: Mean IC50 for scavenging initial DPPH radicals (converted)
From the text: In principle, the antioxidant power of a compound in this assay is correlated to its tendency to reduce the stable, purple-colored DPPH radical through a hydrogen atom transfer (HAT) mechanism and/or a single electron transfer mechanism, thereby converting it to the yellow-colored 2,2-diphenyl-1-picrylhydrazine, whereby this reduction is accompanied by a depletion in the amount of the initial DPPH radicals and a change in the absorbance of the test solution accordingly, which can be detected relative to the blank solution at λ = 517 nm.
The antioxidant potencies of all synthesized compounds were investigated using a 1,1 diphenyl-2-picrylhydrazyl (DPPH) radical scavenging assay according to the protocol described by Bersuder et al.. In brief, a 0.5 mL volume of DPPH ethanolic solution was mixed with an equal volume of each sample concentration (i.e., the test compound or butylated hydroxytoluene, BHT, which was used as the reference antioxidant in the positive control experiment), shaken strongly, and incubated at room temperature for 1 h in darkness. The absorbance of the residual DPPH radicals was measured at λ = 519 nm and compared to the negative control (without the test compound or reference antioxidant). The DPPH radical scavenging power was calculated using the following formula: scavenging efficiency (%) = (1 − Acompound/AControl) × 100, where Acompound and Acontrol are the absorbance of the tested compound and the negative control, respectively. […] Additionally, the ± SD values were calculated from three independent triplicate measurements.

[4] = molecular target: T1, COX-2 (Homo sapiens, UniProt P35354); test: COX-2 inhibitory screening assay (Cayman kit); format: biochemical; details: for Increase in COX-2 inhibitory efficiency by duplicating the concentration: % inhibition at 0.200 mg/mL divided by % inhibition at 0.100 mg/mL; for inhibition at 100 µg/mL / inhibition at 200 µg/mL: read-out: COX-2 mean % inhibition ± SD
T1 construct: purchased Cayman Chemical Company 701080
T1 sequence (P35354 18-604): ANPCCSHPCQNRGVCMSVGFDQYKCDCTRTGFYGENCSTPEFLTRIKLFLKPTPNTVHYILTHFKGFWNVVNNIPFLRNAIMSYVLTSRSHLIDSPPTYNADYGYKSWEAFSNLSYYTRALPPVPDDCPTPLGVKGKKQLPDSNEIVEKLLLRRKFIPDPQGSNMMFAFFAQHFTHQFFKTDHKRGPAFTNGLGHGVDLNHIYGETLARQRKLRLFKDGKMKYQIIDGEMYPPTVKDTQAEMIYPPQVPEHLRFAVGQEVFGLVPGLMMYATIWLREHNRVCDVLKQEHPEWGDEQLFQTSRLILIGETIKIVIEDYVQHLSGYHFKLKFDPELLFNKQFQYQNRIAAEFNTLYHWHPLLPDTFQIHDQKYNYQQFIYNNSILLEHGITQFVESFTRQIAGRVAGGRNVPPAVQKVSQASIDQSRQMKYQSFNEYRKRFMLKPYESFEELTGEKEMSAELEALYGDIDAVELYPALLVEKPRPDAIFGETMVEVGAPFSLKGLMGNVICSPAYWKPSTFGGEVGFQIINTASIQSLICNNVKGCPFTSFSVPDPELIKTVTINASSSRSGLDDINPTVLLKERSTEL
Method: Each compound of the two series, 3a–h and 5a–h, was resuspended in 100% DMSO at a final concentration of 10 mg/mL. […] Briefly, 10 µL of the tested compound was added to a mixture of the reaction buffer solution (160 µL of 0.1 M Tris-HCl, pH 8.0, in the presence of 2 mM phenol and 5 mM EDTA), COX-2 (10 µL) and heme (10 µL). After a 10 min incubation at 37 °C, the reaction was started by adding arachidonic acid (10 µL), rapidly mixed and kept at 37 °C for 2 min. PGF2α generated via PGH2 reduction with stannous chloride (30 µL) was incubated at room temperature for 5 min. The PGF2α amount was then determined via an enzyme immunoassay. Prior to incubation with the COX-2 reaction (at room temperature 18 h), the 96-well plate was previously coated with a mouse anti-rabbit monoclonal antibody. Unbound reagents were removed by washing the plate followed by adding Ellman’s reagent to the well. The reaction product displaying a distinct yellow color was measured at 410 nm using a UV microplate reader. The % inhibition was calculated by comparing the PGF2α produced in the compound-treated samples with a control sample, using the following equation: % inhibition is equal to [([PGF2α]control − [PGF2α]sample) /[PGF2α ]control ] × 100. […] The COX-2 inhibitory efficiency was expressed as an inhibition percentage, which was determined via a comparison with the negative control experiments.

[5] = tested on: LoVo human colon carcinoma cells; test: Viability assay (LDH release), LoVo; format: cell-based; details: for viability at 200 µg/mL / IC50: Homo sapiens, LoVo; for viability at 200 µg/mL: read-out: Mean % of viable cells ± SD, LoVo; for IC50: from concentration–response curves
Method: as §1, §2

[6] = molecular target: purified recombinant human LDHA protein (Homo sapiens, UniProt P00338); test: Lactate dehydrogenase A (LDHA) inhibitory assay; format: biochemical; details: for Fold change of LDHA inhibition as compared to 0.1 mg/mL: % inhibition at 0.200 mg/mL divided by % inhibition at 0.100 mg/mL; for inhibition at 100 µg/mL / inhibition at 200 µg/mL: read-out: LDHA mean % inhibition ± SD
Method: The LDHA inhibitory effectiveness was investigated by measuring the amounts of consumed NADH [73]. […] The fluorescence of NADH, which has an excitation wavelength of 340 nm and an emission wavelength of 460 nm, was detected using a spectrofluorometer. […] The LDHA inhibitory efficiency was expressed as an inhibition percentage, which was determined via a comparison with the negative control experiments.

[7] = Viability assay (LDH release), HUVEC; format: cell-based, human; details: human
Method: as §2

[8] = tested on: non-tumoral human umbilical vein endothelial cells (HUVEC); test: Viability assay (LDH release), HUVEC; format: cell-based; details: Homo sapiens, HUVEC
Method: as §2

[9] = molecular target: α-glucosidase enzyme from Saccharomyces Cerevisiae (Saccharomyces cerevisiae, UniProt P53341); test: In vitro α-glucosidase (AG) inhibitory activity; details: mean ± SD of three replicates
α-glucosidase enzyme from Saccharomyces Cerevisiae, sequence (P53341 whole entry): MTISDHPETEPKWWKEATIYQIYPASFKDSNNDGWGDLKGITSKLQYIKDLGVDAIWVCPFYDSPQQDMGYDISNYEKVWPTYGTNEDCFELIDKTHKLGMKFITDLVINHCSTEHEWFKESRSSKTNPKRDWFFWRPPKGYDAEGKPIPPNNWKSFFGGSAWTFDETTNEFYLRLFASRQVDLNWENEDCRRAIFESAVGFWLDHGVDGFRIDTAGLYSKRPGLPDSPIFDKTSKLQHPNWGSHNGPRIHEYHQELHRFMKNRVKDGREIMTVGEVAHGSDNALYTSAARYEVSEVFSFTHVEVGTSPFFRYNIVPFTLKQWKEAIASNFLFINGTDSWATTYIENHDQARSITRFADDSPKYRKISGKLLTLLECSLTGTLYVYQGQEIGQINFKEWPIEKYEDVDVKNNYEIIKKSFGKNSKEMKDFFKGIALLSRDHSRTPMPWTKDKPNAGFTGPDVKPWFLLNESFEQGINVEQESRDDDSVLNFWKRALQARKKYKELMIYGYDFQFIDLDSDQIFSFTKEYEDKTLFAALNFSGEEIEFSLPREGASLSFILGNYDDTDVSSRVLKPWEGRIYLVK
Method: Then, the reaction was allowed to start by adding 150 µL of the color reagent 4-NPGP and the resulting mixture was incubated for additional 15 min at 37 °C. Collectively, the colorimetric assay medium contained 2U of α-glucosidase, 5 mM of 4-NPGP and 10 mM of the potassium phosphate buffer with a pH of 6.9. […] The inhibitory efficiency of each compound was expressed as IC50 µg/mL (as well as µM), which was calculated from the corresponding calibration curve.

[10] = human umbilical vein endothelial cells (HUVEC), 200 µg/mL, read-out: Mean % of viable cells ± SD, HUVEC

COc1cc2[nH]c(=S)n(-c3cccc(C(F)(F)F)c3)c(=O)c2cc1OC [Compound 3c, 6,7-Dimethoxy-2-thioxo-3-(3-trifluoromethyl-phenyl)-2,3-dihydro-1H-quinazolin-4-one]
Mean IC50 α-Amylase (AA) [1]: 92.000 ± 3.000 mg/L | IC50 [1]: 241 µM | viability at 200 µg/mL ([2]; HCT-116, 48 h): 65 ± 3.61% | IC50 [2]: 281 µg/mL and 735 µM | Mean IC50 for scavenging initial DPPH radicals [3]: 100 ± 14 mg/L | IC50 [3]: 262 µM | Increase in COX-2 inhibitory efficiency by duplicating the concentration [4]: 2.05 fold | inhibition at 100 µg/mL ([4]; at 0.100 mg/mL): 9.85 ± 1.63% | inhibition at 200 µg/mL ([4]; at 0.200 mg/mL): 20.2 ± 1.13% | viability at 200 µg/mL ([5]; 48 h): 47.3 ± 2.52% | IC50 [5]: 275 µg/mL and 720 µM | Fold change of LDHA inhibition as compared to 0.1 mg/mL [6]: 0.20 fold | inhibition at 100 µg/mL ([6]; at 0.1 mg/mL): 17.8 ± 1.56% | inhibition at 200 µg/mL ([6]; at 0.2 mg/mL): 30.8 ± 1.77% | viability at 200 µg/mL [7]: 99.67 ± 0.577%

O=c1[nH]cc(F)c(=O)[nH]1 [Compound 5-FU, 5-Fluorouracil, reference compound]
Selectivity index (IC50 normal cell / IC50 cell line), HCT-116 ([2]; HUVEC vs HCT-116): 25.190 | IC50 [2]: 11.8 µg/mL and 91.1 µM | Selectivity index (IC50 normal cell / IC50 cell line), LoVo ([5]; HUVEC vs LoVo): 102.577 | IC50 [5]: 2.91 µg/mL and 22.4 µM | IC50 [8]: 298 µg/mL and 2.29 mM | viability at 200 µg/mL [7, 10]: 57.3 ± 2.52%

O=c1c2cc(Cl)ccc2nc(SCc2ccc(Cl)cc2)n1-c1ccc(C(F)(F)F)cc1 [Compound 5d, 2-(4-Chloro-benzylsulfanyl)-6-chloro-3-(4-trifluoromethyl-phenyl)-3H-quinazolin-4-one]
Mean IC50 α-Glucosidase (AG) [9]: 38.100 ± 0.656 mg/L | IC50 ([9]; read-out: Mean IC50 α-Glucosidase (AG)): 79.2 µM | Mean IC50 α-Amylase (AA) [1]: 181.667 ± 5.508 mg/L | IC50 [1]: 377 µM | Mean % of viable cells ± SD, HCT-116 ([2]; 200 µg/mL, 48 h): 86.667 ± 1.528% | Mean IC50 for scavenging initial DPPH radicals [3]: 200 ± 28 mg/L | IC50 [3]: 416 µM | Increase in COX-2 inhibitory efficiency by duplicating the concentration [4]: 1.68 fold | COX-2 mean % inhibition ± SD ([4]; at 0.100 mg/mL): 26.300 ± 1.839% | COX-2 mean % inhibition ± SD ([4]; at 0.200 mg/mL): 44.050 ± 1.344% | Mean % of viable cells ± SD, LoVo ([5]; 200 µg/mL, 48 h): 76.000 ± 1.732% | Fold change of LDHA inhibition as compared to 0.1 mg/mL [6]: 1.47 fold | LDHA mean % inhibition ± SD ([6]; at 0.1 mg/mL): 13.850 ± 2.051% | LDHA mean % inhibition ± SD ([6]; at 0.2 mg/mL): 20.400 ± 1.980%

O=c1c2cc(Br)ccc2nc(SCc2ccc(Cl)cc2)n1-c1cccc(C(F)(F)F)c1 [Compound 5b, 2-(4-Chloro-benzylsulfanyl)-6-bromo-3-(3-trifluoromethyl-phenyl)-3H-quinazolin-4-one]
Mean IC50 α-Amylase (AA) [1]: 162.000 ± 5.568 mg/L | IC50 [1]: 308 µM | IC50 [2]: 246 µg/mL and 468 µM | viability at 200 µg/mL ([2]; HCT-116, 200 µg/mL, 48 h): 60.3 ± 2.52% | Mean IC50 for scavenging initial DPPH radicals [3]: 167 ± 10 mg/L | IC50 [3]: 318 µM | Increase in COX-2 inhibitory efficiency by duplicating the concentration [4]: 2.11 fold | inhibition at 100 µg/mL ([4]; at 0.100 mg/mL): 9.25 ± 1.77% | inhibition at 200 µg/mL ([4]; at 0.200 mg/mL): 19.5 ± 2.12% | IC50 [5]: 161 µg/mL and 306 µM | viability at 200 µg/mL ([5]; 200 µg/mL, 48 h): 37.7 ± 2.52% | Fold change of LDHA inhibition as compared to 0.1 mg/mL [6]: 1.55 fold | inhibition at 100 µg/mL ([6]; at 0.1 mg/mL): 14.5 ± 1.13% | inhibition at 200 µg/mL ([6]; at 0.2 mg/mL): 22.5 ± 1.7% | viability at 200 µg/mL [7, 10]: 96.33 ± 0.577%

O=c1c2cc(Br)ccc2[nH]c(=S)n1-c1ccc([N+](=O)[O-])cc1 [Compound 3g, 6-Bromo-3-(4-nitro-phenyl)-2-thioxo-2,3-dihydro-1H-quinazolin-4-one]
Mean IC50 α-Amylase (AA) [1]: 179.333 ± 7.768 mg/L | IC50 [1]: 474 µM | viability at 200 µg/mL ([2]; HCT-116, 48 h): 42.3 ± 2.52% | IC50 [2]: 168 µg/mL and 444 µM | Mean IC50 for scavenging initial DPPH radicals [3]: 62.5 ± 2 mg/L | IC50 [3]: 165 µM | Increase in COX-2 inhibitory efficiency by duplicating the concentration [4]: 1.65 fold | inhibition at 100 µg/mL ([4]; at 0.100 mg/mL): 60 ± 2.83% | inhibition at 200 µg/mL ([4]; at 0.200 mg/mL): 98.9 ± 1.56% | IC50 ([4]; mean ± SD of three replicates): 252 µM | viability at 200 µg/mL ([5]; 48 h): 55.7 ± 3.06% | IC50 [5]: 222 µg/mL and 586 µM | inhibition at 100 µg/mL ([6]; at 0.1 mg/mL): 68.2 ± 4.6% | inhibition at 200 µg/mL ([6]; at 0.2 mg/mL): 100% | IC50 ([6]; mean ± SD of three replicates): 242 µM | viability at 200 µg/mL [7, 10]: 98.7 ± 1.16%
